In patent US20240389593A1, “HETEROCYCLIC COMPOUND AND USE THEREOF” (KUMIAI CHEMICAL INDUSTRY CO., LTD., priority 2021, published 2024):

How the values were obtained:
Type in all cases: in vivo
Plutella xylostella = assay: Test on insecticidal activity in Plutella xylostella (cabbage leaf dip); conditions: foliar, 144 h, 500 ppm active ingredient (wettable powder diluted with water), cabbage leaves dipped, second-instar larvae, 25° C., 6 days after treatment
Protocol: (§1) A wettable powder prepared according to formulation example 2 was diluted with water to a concentration of 500 ppm as the active ingredient. Some cabbage leaves were dipped in the drug solution, air-dried, and then placed in a plastic cup. Ten second-instar larvae of Plutella xylostella were put on the treated leaves, and the cup was covered with a lid. Then, it was placed in a room at constant temperature of 25° C. The number of dead insects was investigated at 6 days after treatment. Mortality rate was calculated using the formula 1. The number of replication was one in each test.

Helicoverpa armigera = assay: Test on insecticidal activity in Helicoverpa armigera (cabbage leaf dip); conditions: foliar, 144 h, 500 ppm active ingredient (wettable powder diluted with water), cabbage leaves dipped, hatching larvae, 25° C., 6 days after treatment
Protocol: as §1, with “Five hatching” for “Ten second-instar”, “Helicoverpa armigera” for “Plutella xylostella”, “after the” for “after”, “two” for “one”

Nilaparvata lugens = assay: Test on insecticidal activity in Nilaparvata lugens (rice sprout dip); conditions: 144 h, 500 ppm active ingredient (wettable powder diluted with water), rice sprouts dipped, second-instar larvae, 25° C., 6 days after treatment
Protocol: A wettable powder prepared according to formulation example 2 was diluted with water to a concentration of 500 ppm as the active ingredient. Some rice sprouts were dipped in the drug solution and placed in a plastic cup. Ten second-instar larvae of Nilaparvata lugens were put on the treated leaves, and the cup was covered with a lid. Then, it was placed in a constant room temperature of 25° C. The number of dead insects was investigated at 6 days after the treatment. Mortality rate was calculated using the formula 1. The number of replication was one in each test.

Aphis gossypii = assay: Test on pest control effect in Aphis gossypii (cucumber nursery plant dip); conditions: 72 h, 500 ppm active ingredient (wettable powder diluted with water), cucumber nursery plants inoculated with larvae dipped, 25° C., 3 days after treatment
Protocol: [Test example 4] Test on pest control effect in Aphis gossypii A wettable powder prepared according to formulation example 2 was diluted with water to a concentration of 500 ppm as the active ingredient. Some nursery plant of cucumber previously inoculated with larvae of Aphis gossypii were dipped in the drug solution and air-dried. The treated nursery plants of cucumber were placed in a room at constant temperature of 25° C. The number of surviving insects was counted at 3 days after the treatment. Mortality rate was calculated using the formula 1. The number of replication was one in each test.

Measured: mortality at 500 ppm

CCS(=O)(=O)c1c(-n2cc(OCC(F)(F)C(F)(F)C(F)(F)F)cn2)nc2ccc(Br)cn12 [A-0039, 6-bromo-3-(ethylsulfonyl)-2-[4-(2,2,3,3,4,4,4-heptafluorobutoxy)-1H-pyrazol-1-yl] imidazo [1,2-a] pyridine]
≥ 90%: all assays above

CCS(=O)(=O)c1c(-n2cc(OCC(F)(F)C(F)(F)C(F)(F)F)cn2)nc2ccc(C(F)(F)F)cn12 [A-0046, 3-(ethylsulfonyl)-2-[4-(2,2,3,3,4,4,4-heptafluorobutoxy)-1H-pyrazol-1-yl]-6-(trifluoromethyl)imidazo[1,2-a]pyridine]
≥ 90%: all assays above

CCS(=O)(=O)c1c(-n2cc(OCC(F)(F)C(F)(F)C(F)(F)F)cn2)nc2ccc(C3CC3)cn12 [A-0049, 6-cyclopropyl-3-(ethylsulfonyl)-2-[4-(2,2,3,3,4,4,4-heptafluorobutoxy)-1H-pyrazol-1-yl] imidazo [1,2-a] pyridine]
≥ 90%: all assays above
